System: GPR65 WT BMDCs
Assay: RNA sequencing of BMDCs, GPR65 WT
Assay type: cell-based, mouse
Description: BMDCs were differentiated from bone marrow from in Dulbecco’s modified Eagle’s medium (DMEM) [10% heat-inactivated fetal bovine serum (FBS), 1X GlutaMAX, 1% penicillin-streptomycin] containing recombinant murine granulocyte-macrophage colony-stimulating factor (rmGM-CSF) (20 ng/ml; Peprotech, 315-03) for 7 days, supplemented with additional DMEM + rmGM-CSF on day 3. Cells were then scraped and seeded at 1 × 10^5 cells per well in a 96-well microplate and allowed to adhere overnight.
Different media were prepared on the basis of target pH. pH 6.6: DMEM [10% FBS, 1% penicillin/streptomycin (p/s), 20 mM BES (MilliporeSigma, B4554), 1X Glutamax (Gibco, 35050061), 3.75 mM sodium bicarbonate, and 41.25 mM NaCl]. pH 7.2: DMEM (10% FBS, 1% p/s, 20 mM BES, 1X Glutamax, 7.5 mM sodium bicarbonate, and 36.5 mM NaCl). pH 7.6: DMEM 10% FBS, 1% p/s, 20 mM BES, 1X Glutamax, and 44 mM sodium bicarbonate. Media was allowed to equilibrate overnight at 37°C, 5% CO2 in a vented conical tube, and then adjusted to desired pH immediately before the stimulation using 1 M NaOH.
BMDCs were stimulated with different compounds and pH conditions while simultaneously challenged with zymosan (5 μg/ml; Invivogen, tlrl-zyn) for 2 hours. The treatment conditions were as follows: (i) pH 7.2 + DMSO, (ii) pH 7.2 + 20 μM BRD5075, (iii) pH 7.6 + DMSO, and (iv) pH 7.6 + 5 μM PGE2 (Tocris, 2296). Cells were lysed with a lysis/binding buffer (Invitrogen, A33562).
Libraries were prepared using a modified SmartSeq2 protocol. RNA lysates were purified with Dynabeads mRNA Direct Purification kit (Life Technologies, 61011), followed by reverse transcription with Maxima Reverse Transcriptase (Thermo Fisher Scientific, EP0742) and whole transcription amplification (WTA) with KAPA HotStart HiFi 2x ReadyMix (Kapa Biosystems, KK2601). WTA products were purified with Ampure XP beads (Beckman Coulter, A63880). RNA sequencing libraries were constructed using Nextera XT DNA Library Preparation kit (Illumina, FC-131-1096). Samples were purified with Ampure XP, pooled in equal quantities, then run on 2% E-gel EX (Invitrogen, G402022). Extracted library from ~250 to 800 bps with gel extraction kit (Zymo Research, D4008). The libraries were sequenced on an Illumina NextSeq 500 instrument with NextSeq 500/550 High Output v2 kit (Illumina, 20024906) and the following parameters: paired End: Index1 8, Index2 8, Read1 38, Read 2 38.
BCL files were converted to fastq using Bcl2Fastq. Fastq reads were aligned to the mouse reference genome mm10 using the STAR aligner ([55]), and counts assigned to genes using the RSEM package ([56]). The R/Bioconductor package DESeq2 ([57]) was used to identify differentially expressed (DE) genes. The data were not normalized or pre-processed in any way, as DESeq2 expects raw un-normalized counts as input. Genes with a Benjamini and Hochberg–corrected P value < 0.1 were considered statistically significant.

[1] = WT BMDCs, BRD5075 vs DMSO, pH 7.2

For `Cc1ccc(NC(=O)c2cnn3c(O)cc(-c4ccc(COC(C)C)cc4)nc23)nc1` [BRD5075, O=C(NC1=NC=C(C)C=C1)C2=C3N(N=C2)C(O)=CC(C4=CC=C(COC(C)C)C=C4)=N3], the Fos expression (20 μM vs DMSO, pH 7.2) was “up-regulated”, the “Socs3 and Cish expression” value (20 μM vs DMSO, pH 7.2) was “down-regulated” and the “Tnfrsf9, Tnfrsf26 and Tnfaip8 expression” value (20 μM vs DMSO, pH 7.2) was “down-regulated”. The “expression of inflammatory cytokine (Il12b, Il1b, Tnf) and chemokine (Ccl7, Ccl2, Ccl22, Cxcl1, Cxcl2, Cxcl3) genes” value (20 μM vs DMSO, pH 7.2) was “down-regulated”, the “Mt1 and Mt2 expression” value (20 μM vs DMSO, pH 7.2, zymosan, 2 hours) was “up-regulated” and the “log2FoldChange Acod1” value [1] was -0.8043. For the same compound, the “log2FoldChange Ahnak” value [1] was -0.3498, the “log2FoldChange Bcl2a1a” value [1] was -0.4699 and the “log2FoldChange Bcl2a1b” value [1] was -0.2827. The “log2FoldChange Bcl2a1d” value [1] was -0.38, the “log2FoldChange Btg1” value [1] was -0.3947 and the “log2FoldChange Cacnb3” value [1] was -0.5998. The “log2FoldChange Cap1” value [1] was -0.3862, the “log2FoldChange Car2” value [1] was -0.6566 and the “log2FoldChange Ccl2” value [1] was -0.6388. For the same compound, the “log2FoldChange Ccl5” value [1] was -0.8152, the “log2FoldChange Ccl7” value [1] was -1.049 and the “log2FoldChange Ccl22” value [1] was -0.5298. For the same compound, the “log2FoldChange Ccr7” value [1] was -0.5607, the “log2FoldChange Ccrl2” value [1] was -0.6903 and the “log2FoldChange Cd14” value [1] was -0.4004. The “log2FoldChange Cd86” value [1] was -0.6053, the “log2FoldChange Cdc37” value [1] was -0.5925 and the “log2FoldChange Cdc42ep2” value [1] was -0.4809. The “log2FoldChange Cebpb” value [1] was -0.9437, the “log2FoldChange Cflar” value [1] was -0.6547 and the “log2FoldChange Cish” value [1] was -0.8764. The “log2FoldChange Clec4e” value [1] was -0.6037, the “log2FoldChange Coro1a” value [1] was -0.3668 and the “log2FoldChange Cxcl1” value [1] was -0.8744. The “log2FoldChange Cxcl2” value [1] was -0.4995, the “log2FoldChange Cxcl3” value [1] was -0.5082 and the “log2FoldChange Cytip” value [1] was -0.4125. For the same compound, the “log2FoldChange Ddx5” value [1] was -0.3311, the “log2FoldChange Ehd1” value [1] was -0.3665 and the “log2FoldChange Eif1a” value [1] was -0.4662. For the same compound, the “log2FoldChange Fam177a” value [1] was -0.5633, the “log2FoldChange Flrt3” value [1] was -0.6822 and the “log2FoldChange Fos” value [1] was 0.7626. The “log2FoldChange Fscn1” value [1] was -1.127, the “log2FoldChange Gem” value [1] was -0.7493 and the “log2FoldChange Ghitm” value [1] was -0.3657. For the same compound, the “log2FoldChange Gpr84” value [1] was -0.6049, the “log2FoldChange H2-Ab1” value [1] was -0.3044 and the “log2FoldChange H2-D1” value [1] was -0.3663. For the same compound, the “log2FoldChange H2-K1” value [1] was -0.4443, the “log2FoldChange H2-Q4” value [1] was -0.9033 and the “log2FoldChange H2-Q6” value [1] was -0.6888. For the same compound, the “log2FoldChange H2-Q7” value [1] was -0.7384, the “log2FoldChange Hivep3” value [1] was -0.8888 and the “log2FoldChange Hnrnpab” value [1] was -0.4744. The “log2FoldChange Ier3” value [1] was -0.643, the “log2FoldChange Ifitm1” value [1] was -0.5428 and the “log2FoldChange Ifitm3” value [1] was -0.5054. The “log2FoldChange Il1b” value [1] was -1.038, the “log2FoldChange Il1rn” value [1] was -0.3871 and the “log2FoldChange Il12b” value [1] was -0.7451. The “log2FoldChange Inhba” value [1] was -0.8833, the “log2FoldChange Irf8” value [1] was -0.5092 and the “log2FoldChange Lrrc58” value [1] was -0.5089. The “log2FoldChange Malt1” value [1] was -0.6085, the “log2FoldChange Marcksl1” value [1] was -0.8077 and the “log2FoldChange Myo9b” value [1] was -0.609. For the same compound, the “log2FoldChange Nfe2l2” value [1] was -0.3368, the “log2FoldChange Nfkb2” value [1] was -0.6827 and the “log2FoldChange Nfkbia” value [1] was -0.3317. For the same compound, the “log2FoldChange Nfkbid” value [1] was -0.8151, the “log2FoldChange Nfkbie” value [1] was -0.5542 and the “log2FoldChange Pde4b” value [1] was -0.698. For the same compound, the “log2FoldChange Plau” value [1] was -0.5236, the “log2FoldChange Plek” value [1] was -0.4983 and the “log2FoldChange Ptafr” value [1] was -0.4512. For the same compound, the “log2FoldChange Ptgs2” value [1] was -0.6129, the “log2FoldChange Ptpn6” value [1] was -0.3496 and the “log2FoldChange Rasgef1b” value [1] was -0.4887. The “log2FoldChange Rgs1” value [1] was -0.3869, the “log2FoldChange Rps28” value [1] was 0.3044 and the “log2FoldChange Rsad2” value [1] was -0.6161. For the same compound, the “log2FoldChange S100a8” value [1] was -0.9378, the “log2FoldChange S100a9” value [1] was -1.055 and the “log2FoldChange Samsn1” value [1] was -0.5214. The “log2FoldChange Sat1” value [1] was -0.2878, the “log2FoldChange Sel1l” value [1] was -0.4914 and the “log2FoldChange Sh3bgrl” value [1] was -0.3277. For the same compound, the “log2FoldChange Slc3a2” value [1] was -0.6173, the “log2FoldChange Slc7a11” value [1] was -0.4778 and the “log2FoldChange Slfn2” value [1] was -0.3087. For the same compound, the “log2FoldChange Socs3” value [1] was -0.448, the “log2FoldChange Sqstm1” value [1] was -0.4417 and the “log2FoldChange Srgn” value [1] was -0.3315. For the same compound, the “log2FoldChange Stub1” value [1] was -0.4634, the “log2FoldChange Syngr2” value [1] was -0.3646 and the “log2FoldChange Tfec” value [1] was -0.8287. For the same compound, the “log2FoldChange Tlr2” value [1] was -0.455, the “log2FoldChange Tmem123” value [1] was -0.5279 and the “log2FoldChange Tmsb10” value [1] was 0.5333. The “log2FoldChange Tnf” value [1] was -0.4212, the “log2FoldChange Tnfaip8” value [1] was -0.4539 and the “log2FoldChange Tnfrsf9” value [1] was -0.6055. For the same compound, the “log2FoldChange Tnfrsf26” value [1] was -0.4775, the “log2FoldChange Tnip3” value [1] was -0.5262 and the “log2FoldChange Ybx1” value [1] was -0.4889. For the same compound, the “log2FoldChange mt-Atp8” value [1] was 0.4788.

Source: paper PMC11259170, “Small-molecule probe for IBD risk variant GPR65 I231L alters cytokine signaling networks through positive allosteric modulation” (Science Advances, 2024)
